From US20250326765A1, “PDE4B INHIBITOR AND USE THEREOF” (XIZANG HAISCO PHARMACEUTICAL CO., LTD., priority 2022, published 2025)
Read-outs that look alike come from different tables or passages of the source.

Experiments:
[1] = Inhibition of LPS-induced TNF-α release from human peripheral blood mononuclear cells in vitro; format: cell-based; details: PBMC, hPBMC, 100 ng/mL LPS, 4 h; for IC50: class symbols, read-out: Re IC50 (nM) (relative IC50), TNF-α induced by LPS; for Emax: read-out: Max inhibition (%)
Method: Normal human peripheral blood which was anticoagulated (citric acid anticoagulation) was collected, and hPBMCs were prepared by Ficoll-Paque PLUS (Cytiva, Cat #17144002, density 1.077 g/mL). The concentration of hPBMC cells was adjusted to 0.25×10^6 cells/mL with RPMI1640 medium and inoculated into a 96-well plate in an amount of 50000 cells per well. Subsequently, different concentrations of drugs were added for pre-incubation for 1 h (the DMSO final concentration was 0.1%, and the positive and negative control wells had the same volume of RPMI1640 containing 0.1% DMSO). After the pre-incubation was complete, 100 ng/mL LPS (SIGMA, L2630) was added to the compound and positive control wells, and the negative control well had the same volume of RPMI1640 containing 0.1% DMSO. Incubation was carried out for 4 h in an incubator at 37° C. and 5% CO2. The cell supernatant was collected, and the content of TNF-α in the supernatant sample was detected by human TNF-α Elisa quantitative test kit (Sino Biological, Cat #KIT10602). The IC50 value was calculated using GraphPad Prism software.

PDE4B2 = target: T1, PDE4B2 (Homo sapiens, UniProt Q07343); assay: Effect of compounds on PDE4B2 activity (fluorescence polarization kit); format: biochemical
T1 construct: purchased BPS Bioscience 60343
T1 sequence (Q07343 1-564 isoform Q07343-2): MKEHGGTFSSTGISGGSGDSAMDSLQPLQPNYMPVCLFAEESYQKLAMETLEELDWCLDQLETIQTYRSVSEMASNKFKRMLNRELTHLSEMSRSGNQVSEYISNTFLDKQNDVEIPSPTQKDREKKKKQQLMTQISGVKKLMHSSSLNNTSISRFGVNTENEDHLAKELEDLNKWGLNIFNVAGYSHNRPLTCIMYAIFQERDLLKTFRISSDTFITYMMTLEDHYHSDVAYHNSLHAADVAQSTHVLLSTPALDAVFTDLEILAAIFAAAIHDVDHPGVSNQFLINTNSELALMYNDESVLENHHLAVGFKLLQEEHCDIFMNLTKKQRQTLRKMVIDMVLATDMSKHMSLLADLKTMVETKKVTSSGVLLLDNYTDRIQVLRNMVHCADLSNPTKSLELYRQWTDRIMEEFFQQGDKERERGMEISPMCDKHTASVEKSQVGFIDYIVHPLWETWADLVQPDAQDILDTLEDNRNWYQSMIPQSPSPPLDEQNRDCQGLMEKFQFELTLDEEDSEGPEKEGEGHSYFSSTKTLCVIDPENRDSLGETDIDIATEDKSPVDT
Method: The effect of compounds on PDE4B2 activity was detected by a fluorescence polarization kit (BPS Bioscience, Catalog #60343). According to the instructions of the kit, FAM-Cyclic-3′,5′-AMP at a final concentration of […], 1 ng/well of PDE4B2 (PDE buffer was added to the negative control well), and a compound diluted in a gradient manner (PDE buffer containing 10% DMSO was added to the positive control well) were added to each well, fully mixed, and then reacted at room temperature for 1 h. The Binding Agent was diluted with the Binding Agent Diluent (cAMP) at a ratio of 1:100 for later use, the Binding Agent dilution was taken and added to the test plate at 50 μl/well and incubated at room temperature with slow shaking for 20 minutes. After the incubation was complete, Envision was used for FP detection, with Excitation at 480 nm and Emission at 535 nm. FP was usually represented by mP value.
[formula] • I∥ (S535): fluorescence intensity in parallel direction • I⊥ (P535): fluorescence intensity in perpendicular direction • G: G factor=1
(§1) [formula] • mP(sample): mP of the test compound in a reaction well • mP(negative control): mP in the negative control well • mP(positive control): mP in the positive control well
(§2) According to the calculated inhibition rate at each concentration, the IC50 value of each compound was calculated by GraphPad Prism 8 software.

PDE4D2 = target: T2, PDE4D2 (Homo sapiens, UniProt Q08499); assay: Effect of compounds on PDE4D2 activity (fluorescence polarization kit); format: biochemical; details: class symbols
T2 construct: purchased BPS Bioscience 60345
T2 sequence (Q08499 303-809): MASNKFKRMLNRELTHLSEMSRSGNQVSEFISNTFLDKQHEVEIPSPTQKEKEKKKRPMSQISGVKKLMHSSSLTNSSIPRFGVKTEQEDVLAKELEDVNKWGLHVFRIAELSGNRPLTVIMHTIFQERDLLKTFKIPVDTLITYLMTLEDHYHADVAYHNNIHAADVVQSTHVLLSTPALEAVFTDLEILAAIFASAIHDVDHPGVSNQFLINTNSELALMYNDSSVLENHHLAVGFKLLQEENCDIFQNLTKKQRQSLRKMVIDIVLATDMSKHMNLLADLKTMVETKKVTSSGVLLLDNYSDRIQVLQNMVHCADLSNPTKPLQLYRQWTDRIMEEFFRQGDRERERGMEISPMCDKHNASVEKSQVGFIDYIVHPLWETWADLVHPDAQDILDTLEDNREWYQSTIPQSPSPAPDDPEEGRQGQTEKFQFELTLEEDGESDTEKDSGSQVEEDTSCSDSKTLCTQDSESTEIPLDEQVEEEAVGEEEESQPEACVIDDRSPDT
Method: The effect of compounds on PDE4D2 activity was detected by a fluorescence polarization kit (BPS Bioscience, Catalog #60345). During the reaction, 12.5 μL of 0.272 ng/well of an enzyme (final concentration: 0.068 ng/well) and 12.5 μL of the compound diluted in a gradient manner (DMSO concentration: 4%) were first pre-incubated at room temperature for 15 minutes, the same volume of the enzyme at the same concentration and 12.5 μL of PDE buffer containing 4% DMSO were added to the positive control well, and 25 μL of PDE buffer containing 2% DMSO was added to the negative control well. After completion, 25 μL of […] FAM-Cyclic-3′,5′-AMP (final concentration: […]) was added to each well, fully mixed, and then incubated at room temperature with slow shaking for 30 minutes. The Binding Agent was diluted with the Binding Agent Diluent (cAMP) at a ratio of 1:100 for later use, 100 μl/well of the Binding Agent dilution was taken and added to all wells of the test plate and incubated at room temperature with slow shaking for 1 hour.
After the incubation was complete, BMG LRBTECH microplate reader was used for FP detection, with Excitation at 485 nm and Emission at 520 nm. FP was usually represented by mP value.
[formula] • I∥ (S520): fluorescence intensity in parallel direction • I⊥ (P520): fluorescence intensity in perpendicular direction • G: G factor=1
as §1, §2

[2] = Pharmacokinetic test in mice; format: in vivo, ICR mice
Method: 5.1 Experimental animals: Male ICR mice, 20-25 g, 6 mice/compound. Purchased from Chengdu Ddossy Experimental Animals Co., Ltd.
5.2 Experimental design: On the day of the experiment, 42 ICR mice were randomly grouped according to their body weights. The animals were fasted with water available for 12-14 h one day before administration and fed 4 h after administration.
Before and after administration, 0.06 mL of blood was taken from the orbit under isoflurane anesthesia and placed in an EDTAK2 centrifuge tube for centrifugation at 5000 rpm at 4-C for 10 min, followed by plasma collection. The blood collection time points for the intravenous group and intragastric group were both 0 m, 5 mi, 15 mi, 30 mi, 1 h, 2 h, 4 h, 6 h, 8 h, and 24 h. Before analysis and detection, all the samples were stored at −80° C., and the samples were subjected to quantitative analysis using LC-MS/MS.

[3] = class symbols, read-out: PDE4B2 IC50
[4] = male, ICR, mouse, iv, plasma, i.v. (5 mg/kg)
[5] = male, ICR, mouse, po, plasma, i.g. (10 mg/kg)

| SMILES | IC50 [1] [nM] | IC50 (PDE4B2; [3]) [nM] | IC50 (PDE4D2) [nM] | Emax [1] [%] | further results |
| --- | --- | --- | --- | --- | --- |
| CC(=O)N1CCN2c3ccc(-c4nc5c(c(NC6(CO)CCC6)n4)[S+]([O-])CC5)cc3OCC2C1 (single isomer, unassigned) [Compound 78-1] | < 10 | 10 to 50 | – | 61.2 | – |
| C[Si]1(C)CCN(c2cnc(C3=CCN(c4nc5c(c(NC6(CO)CCC6)n4)[S@+]([O-])CC5)CC3)nc2)CC1 [Compound 54] | 10 to 50 | < 10 | < 10 | 78.4 | – |
| N#Cc1ccc2c(c1)OCC1CN(c3nc4c(c(NC5(CO)CCC5)n3)[S+]([O-])CC4)CCN21 (single isomer, unassigned) [Compound 74-1] | 10 to 50 | < 10 | < 10 | 72.4 | – |
| [O-][S@+]1CCc2nc(N3CC=C(c4cccc(S(F)(F)(F)(F)F)c4)CC3)nc(NC3(CO)CCC3)c21 [Compound 51] | – | < 10 | 10 to 50 | – | – |
| CP(C)(=O)c1cccc(C2=CCN(c3nc4c(c(NC5(CO)CCC5)n3)[S@+]([O-])CC4)CC2)c1 [Compound 63] | – | < 10 | < 10 | – | – |
| [O-][S@+]1CCc2nc(N3CCC(c4ccc5c(c4)CC5)CC3)nc(NC3(CO)CCC3)c21 [Compound 8] | – | 10 to 50 | 10 to 50 | – | – |
| [O-][S@+]1CCc2nc(N3CC=C(c4cccc(SC(F)(F)F)c4)CC3)nc(NC3(CO)CCC3)c21 [Compound 52] | – | – | 10 to 50 | – | – |
| [O-][S@+]1CCc2nc(N3CC=C(c4nc5ccccc5o4)CC3)nc(NC3(CO)CCC3)c21 [Compound 58] | – | < 10 | < 10 | – | – |
| [O-][S@+]1CCc2nc(N3CC=C(c4ccc5c(c4)COB5O)CC3)nc(NC3(CO)CCC3)c21 [Compound 66] | 10 to 50 | < 10 | < 10 | 79.3 | – |
| CC1CN(c2ccc3c(c2)OCC2CN(c4nc5c(c(NC6(CO)CCC6)n4)[S@+]([O-])CC5)CCN32)C1 (single isomer, unassigned) [Compound 81-2] | – | < 10 | < 10 | – | – |
| [O-][S@+]1CCc2nc(N3C[C@H]4CN(c5ccc(Cl)cc5)C[C@H]4C3)nc(NC3(CO)CCC3)c21 [Compound 6] | – | 10 to 50 | < 10 | – | – |
| [O-][S@+]1CCc2nc(N3CCC(c4ccc(Cl)cc4)=C(F)C3)nc(NC3(CO)CCC3)c21 [Compound 43] | – | < 10 | 10 to 50 | – | – |
| C#Cc1cnc(N2CCN(c3nc4c(c(NC5(CO)CCC5)n3)[S+]([O-])CC4)CC2)nc1 (stereo not shown) [Compound 57] | – | 10 to 50 | 10 to 50 | – | – |
| [O-][S@+]1CCc2nc(N3C[C@H]4CN(c5ncc6c(n5)CC6)C[C@H]4C3)nc(NC3(CO)CCC3)c21 [Compound 65] | 10 to 50 | < 10 | < 10 | 82 | – |
| [O-][S@+]1CCc2nc(N3CCC(c4ccc5c(c4)CCC5)CC3)nc(NC3(CO)CCC3)c21 [Compound 9] | – | – | 10 to 50 | – | – |
| [O-][S@+]1CCc2nc(N3CC=C(c4nc5ccccc5s4)CC3)nc(NC3(CO)CCC3)c21 [Compound 56] | – | < 10 | < 10 | – | – |
| [O-][S+]1CCc2nc(N3CCC4=C(CCc5cc(Cl)ccc54)C3)nc(NC3(CO)CCC3)c21 (stereo not shown) [Compound 30] | – | – | < 10 | – | – |
| [O-][S@+]1CCc2nc(N3CC=C(c4ccc(Cl)cc4)CCC3)nc(NC3(CO)CCC3)c21 [Compound 4] | – | 10 to 50 | 10 to 50 | – | – |
| [O-][S@+]1CCc2nc(N3CC4(CC(c5ccc(Cl)cc5)C4)C3)nc(NC3(CO)CCC3)c21 [Compound 10] | – | 10 to 50 | 10 to 50 | – | – |
| [O-][S@+]1CCc2nc(N3Cc4cc5c(cc4C3)CCC5)nc(NC3(CO)CCC3)c21 [Compound 69] | 50 to 100 | < 10 | 10 to 50 | 74.4 | – |

Now from value to compound, other results behind:

| IC50 [1] [nM] | IC50 (PDE4B2; [3]) [nM] | IC50 (PDE4D2) [nM] | SMILES | Emax [1] [%] | further results |
| --- | --- | --- | --- | --- | --- |
| – | – | 10 to 50 | [O-][S@+]1CCc2nc(C3=CCN(c4ncc(Cl)cn4)CC3)nc(NC3(CO)CCC3)c21 [Compound 32] | – | – |
| – | 10 to 50 | 10 to 50 | N#Cc1cnc(C2=CCN(c3nc4c(c(NC5(CO)CCC5)n3)[S@+]([O-])CC4)CC2)nc1 [Compound 50] | – | – |
| < 10 | < 10 | 10 to 50 | N#CC1(c2cnc(C3=CCN(c4nc5c(c(NC6(CO)CCC6)n4)[S@+]([O-])CC5)CC3)nc2)CC1 [Compound 64] | 70.8 | – |
| – | < 10 | < 10 | [O-][S@+]1CCc2nc(N3CC=C(c4ccc(Cl)cc4)CC3)nc(NC3(CO)CCC3)c21 [Compound 1] | – | IC50 (PDE4B2; values in text, read-out: IC50 against PDE4B2): 2.45 nM; F ([2]; i.g. (10 mg/kg)): 76.2 ± 4.7%; AUC(0-t) [2, 4]: 8660 ± 759 ng·h/mL; clearance [2, 4]: 4.55 ± 0.46 mL/min/kg; half-life [2, 4]: 6.17 ± 0.71 h; Vd ([2]; male, ICR, mouse, iv, plasma, i.v. (5 mg/kg), read-out: Vdss): 2.07 ± 0.2 L/kg; AUC(0-t) [2, 5]: 26400 ± 1640 ng·h/mL; half-life [2, 5]: 15.7 ± 4.1 h |
| – | 10 to 50 | 10 to 50 | CP(C)(=O)c1cnc(C2=CCN(c3nc4c(c(NC5(CO)CCC5)n3)[S@+]([O-])CC4)CC2)nc1 [Compound 59] | – | – |
| < 10 | < 10 | < 10 | [O-][S@+]1CCc2nc(N3CC=C(c4ccc(Cl)c5c4CC5)CC3)nc(NC3(CO)CCC3)c21 [Compound 83] | 77.7 | – |
| – | 10 to 50 | 10 to 50 | CP(C)(=O)c1ccnc(C2=CCN(c3nc4c(c(NC5(CO)CCC5)n3)[S@+]([O-])CC4)CC2)n1 [Compound 71] | – | – |
| < 10 | < 10 | < 10 | CC#Cc1cnc(C2=CCN(c3nc4c(c(NC5(CO)CCC5)n3)[S@+]([O-])CC4)CC2)nc1 [Compound 76] | 73.8 | – |
| < 10 | < 10 | < 10 | C#Cc1ccc(C2=CCN(c3nc4c(c(NC5(CO)CCC5)n3)[S@+]([O-])CC4)CC2)nc1 [Compound 70] | 70.5 | – |
| – | 10 to 50 | 10 to 50 | Cc1coc(C2=CCN(c3nc4c(c(NC5(CO)CCC5)n3)[S@+]([O-])CC4)CC2)n1 [Compound 60] | – | – |
| < 10 | < 10 | 10 to 50 | [O-][S@+]1CCc2nc(N3CC=C(c4ncc5c(n4)COB5O)CC3)nc(NC3(CO)CCC3)c21 [Compound 79] | 61.5 | – |
| – | < 10 | < 10 | CC#Cc1ccc(C2=CCN(c3nc4c(c(NC5(CO)CCC5)n3)[S@+]([O-])CC4)CC2)nc1 [Compound 82] | – | – |
| – | < 10 | < 10 | [O-][S+]1CCc2nc(N3CC=C(c4ncc(C5CC5)cn4)CC3)nc(NC3(CO)CCC3)c21 (stereo not shown) [Compound 53] | – | – |
